# Target: human CB1 receptor (Homo sapiens, UniProt P21554)
# Assay: Human CB1 receptor binding, [3H] CP-55,940 displacement on HEK cell membranes
# Parameters: expressed in transfected cells; host or cells: HEK cells, doxycycline-induced; membrane preparation
# Settings: CB1 Ki
# Description: The Human CB1 receptor binding affinity and other biological activities of the compounds of this invention are determined by the following procedures. Membrane preparation: Human Embryonic Kidney (HEK) Cells expressing the human CB1 receptor under transcriptional regulation of a tetracycline inducible promoter were grown in Dulbecco's Modified Essential Medium with sodium pyruvate (Invitrogen, Carlsbad, Calif.) containing 10% tetracycline free fetal bovine serum (Clonetech, Mountain View, Calif.) 100 μg/ml hygromycin (Calbiochem, San Diego, Calif.), 5 μg/ml blasticidin (Invitrogen). CB1 receptor expression was induced by addition of 1 μg/ml doxycycline (Calbiochem) and incubation for an additional 24 hours. Cells were released from flasks using Cell Dissociation Buffer (Invitrogen). Cells were pelleted by centrifugation at 500×G for 5 minutes. Membranes were prepared by resuspending cells in ice cold TEE Buffer (25 mM Tris pH 7.4, 5 mM EDTA, 5 mM EGTA, Complete Protease Inhibitor (Roche, Basel, Switzerland)). Cells were lysed with 12 strokes of a dounce homogenizer. Unlysed cells were pelleted by centrifugation at 500×G for 5 minutes. Membranes were pelleted by centrifugation at 25,000×G for 30 minutes. Membranes were resuspended in TEE, dounced 12 strokes, and pelleted a second time at 25,000×G for 30 minutes. Membrane pellet was resuspended in 50 mM Tris pH 7.4, 100 mM NaCl, 3 mM MgCl2, 0.2 mM EGTA, Complete Protease Inhibitor (Roche). Protein concentration was determined using the Micro-BCA Protein Assay Kit (Pierce, Rockford, Ill.) using BSA as a standard. Membranes were quick frozen and stored at −80 degrees Celsius until use.
# Binding experiments: 50 μl of test compound was incubated with 50 μl of [^3H] CP-55,940 (Perkin Elmer, Boston, Mass.) (final concentration=[…]) and 150 μl of membrane homogenate (1 μg/well) in polypropylene 96-well plates (Corning, Acton, Mass.). Final reaction conditions were 50 mM Tris pH 7.4, 100 mM NaCl, 3 mM MgCl2, 0.2 mM EGTA, 0.04% BSA. Nonspecific binding was determined by incubation with 50 μM WIN-55, 212-2 (Tocris, Ellisville, Mo.). After incubation at room temperature for 60 minutes reactions were harvested by vacuum filtration through Unifilter GF/B-96 filters (Perkin Elmer) that had been presoaked in assay buffer containing 0.5% BSA (Sigma, St. Louis, Mo.) using a FilterMate Plate Harvester (Perkin Elmer). Filters were rinsed 4 times with 50 mM Tris pH 7.4, 0.025% Tween-20 and dried at 50 degrees Celsius for at least 30 minutes. 40 μl of Microscint-20 (Perkin Elmer) was added per well, and plates were counted using a Top-Count Microplate Scintillation Counter (Perkin Elmer). Binding data were analyzed and EC50 and K, values calculated using Graph Pad Prism 4.0 Software.
# Sequence of human CB1 receptor (P21554 whole entry): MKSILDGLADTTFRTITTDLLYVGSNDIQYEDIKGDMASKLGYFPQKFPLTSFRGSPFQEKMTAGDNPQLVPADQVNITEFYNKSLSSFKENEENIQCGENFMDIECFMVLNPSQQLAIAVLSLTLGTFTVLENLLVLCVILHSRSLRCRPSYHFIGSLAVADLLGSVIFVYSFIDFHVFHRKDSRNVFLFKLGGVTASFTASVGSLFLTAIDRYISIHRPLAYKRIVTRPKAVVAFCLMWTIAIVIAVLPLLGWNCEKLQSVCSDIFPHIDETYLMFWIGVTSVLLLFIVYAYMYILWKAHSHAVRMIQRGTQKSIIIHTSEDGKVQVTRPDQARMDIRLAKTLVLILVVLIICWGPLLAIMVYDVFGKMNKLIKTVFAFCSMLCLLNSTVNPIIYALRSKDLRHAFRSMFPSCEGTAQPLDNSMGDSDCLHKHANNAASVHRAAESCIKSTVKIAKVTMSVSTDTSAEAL
row,Structure (SMILES),Ki [nM]
1,CC(C)(C)[C@H](NC(=O)c1nn(Cc2ccc(C(F)(F)F)cc2)c2ccccc12)C(=O)NC(CO)CO [Example 261],76.7
2,CC(C)(C)[C@H](NC(=O)c1nn(Cc2ccc(C#N)cc2)c2ccccc12)C(=O)N1CCS(=O)(=O)CC1 [Example 268],> 400
3,CC(C)(C)[C@H](NC(=O)c1nn(Cc2ccc(F)cc2)c2ccccc12)C(=O)N1CCS(=O)(=O)CC1 [Example 269],23.8
4,CC(C)(C)[C@H](NC(=O)c1nn(Cc2cccc3ccccc23)c2ccccc12)C(N)=O [Example 272],> 400
5,CC(C)(C)[C@H](NC(=O)c1nn(Cc2cccc3ccccc23)c2ccccc12)C(=O)NC1CC1 [Example 273],> 400
6,CC(C)(C)[C@H](NC(=O)c1nn(Cc2cccc3ccccc23)c2ccccc12)C(=O)NCCO [Example 274],> 400
7,CC(C)(C)[C@H](NC(=O)c1nn(Cc2cccc3ccccc23)c2ccccc12)C(=O)NCC(N)=O [Example 275],> 400
8,CC(C)(C)[C@H](NC(=O)c1nn(Cc2cccc3ccccc23)c2ccccc12)C(=O)NC[C@H](O)CO [Example 276],> 400
9,CC(C)(C)[C@H](NC(=O)c1nn(Cc2ccc(F)cc2)c2ccccc12)C(=O)N[C@H]1CCC[C@@H]1O [Example 279],54.1
10,CC(C)(C)[C@H](NC(=O)c1nn(Cc2ccc(F)cc2)c2ccccc12)C(=O)N[C@H]1CCC[C@H]1O [Example 280],176
11,CC(C)(C)[C@H](NC(=O)c1nn(Cc2ccc(C#N)cc2)c2ccccc12)C(=O)NC[C@@H](O)C(N)=O [Example 283],> 400
12,CC(C)(C)[C@H](NC(=O)c1nn(Cc2ccc(C#N)cc2)c2ccccc12)C(=O)N1C[C@@H](O)[C@@H](O)C1 [Example 285],27.9
13,CC(C)(C)[C@H](NC(=O)c1nn(Cc2ccc(F)cc2)c2ccccc12)C(=O)NCC(=N)N [Example 291],1.2
14,CC(C)(C)[C@H](NC(=O)c1nn(Cc2ccc(C#N)cc2)c2cc(F)ccc12)C(=O)NC(CO)CO [Example 296],64.1
15,CC(C)(C)[C@H](NC(=O)c1nn(Cc2ccc(C#N)cc2)c2cc(F)ccc12)C(=O)NC[C@@H](O)CO [Example 297],124
16,CC(C)(C)[C@H](NC(=O)c1nn(Cc2ccc(C#N)cc2)c2cc(F)ccc12)C(=O)NC[C@H](O)CO [Example 298],182
17,CC(C)(C)[C@H](NC(=O)c1nn(Cc2ccc(C#N)cc2)c2cc(F)ccc12)C(=O)NCC(N)=O [Example 301],70.3
18,CN1CCN=C1CNC(=O)[C@@H](NC(=O)c1nn(Cc2ccc(F)cc2)c2ccccc12)C(C)(C)C [Example 304],152

row,Structure (SMILES),Ki [nM]
1,CC(C)(C)[C@H](NC(=O)c1nn(Cc2ccc(F)cc2)c2ccccc12)C(=O)NC[C@@H](O)C(N)=O [Example 314],130
2,CC(C)(C)[C@H](NC(=O)c1nn(Cc2ccc(C#N)cc2)c2ccccc12)C(=O)NCC1CNC(=O)O1 (stereo partly drawn) [Example 316],243
3,CC(C)(C)[C@H](NC(=O)c1nn(Cc2ccc(F)cc2)c2ccccc12)C(=O)N1CCC[C@@H]1C(N)=O [Example 319],45.8
4,CC(C)(C)[C@H](NC(=O)c1nn(Cc2ccc(C#N)cc2)c2ccccc12)C(=O)N1CC(C(N)=O)C1 [Example 351],24.3
5,CC(C)(C)[C@H](NC(=O)c1nn(Cc2ccc(C#N)cc2)c2cc(F)ccc12)C(=O)N1CC(C(N)=O)C1 [Example 353],72.8
6,CC(C)(C)[C@H](NC(=O)c1nn(Cc2ccc(C#N)cc2)c2c(F)cccc12)C(=O)N[C@H]1C[C@H](O)C1 [Example 355],52.9
7,CC(C)(C)[C@H](NC(=O)c1nn(Cc2ccc(C#N)cc2)c2cc(F)ccc12)C(=O)N[C@H]1C[C@H](O)C1 [Example 356],32.6
8,CC(C)(C)[C@H](NC(=O)c1nn(Cc2ccc(C#N)cc2F)c2c(F)c(F)ccc12)C(=O)NCC(N)=O [Example 359],47.2
9,CC(C)(C)[C@H](NC(=O)c1nn(Cc2ccc(C#N)cc2F)c2c(F)c(F)ccc12)C(=O)NC[C@@H](O)CO [Example 360],73.5
10,CC(C)(C)[C@H](NC(=O)c1nn(Cc2ccc(C#N)cc2F)c2c(F)c(F)ccc12)C(=O)NC[C@H](O)CO [Example 361],41.6
11,CC(C)(C)[C@H](NC(=O)c1nn(Cc2ccc(C#N)cc2F)c2c(F)c(F)ccc12)C(=O)NCCS(C)(=O)=O [Example 362],125
12,CC(C)(C)[C@H](NC(=O)c1nn(Cc2ccc(C#N)cc2F)c2c(F)c(F)ccc12)C(=O)NCCS(N)(=O)=O [Example 363],57.8
13,CC(C)(C)[C@H](NC(=O)c1nn(Cc2ccc(C#N)cc2F)c2c(F)cccc12)C(=O)NC[C@@H](O)CO [Example 366],241
14,CC(C)(C)[C@H](NC(=O)c1nn(Cc2ccc(C#N)cc2F)c2c(F)cccc12)C(=O)NC[C@H](O)CO [Example 367],41.4
15,CC(C)(C)[C@H](NC(=O)c1nn(Cc2ccc(C#N)cc2F)c2c(F)cccc12)C(=O)NCC(N)=O [Example 369],28.1
16,CC(C)(C)[C@H](NC(=O)c1nn(Cc2ccc(C#N)cc2F)c2c(F)cccc12)C(=O)NCCS(C)(=O)=O [Example 370],132
17,CC(C)(C)[C@H](NC(=O)c1nn(Cc2ccc(C#N)cc2F)c2c(F)cccc12)C(=O)NCCS(N)(=O)=O [Example 371],54.8
18,Cc1nnc(CNC(=O)[C@@H](NC(=O)c2nn(Cc3ccc(C#N)cc3F)c3c(F)cccc23)C(C)(C)C)o1 [Example 372],22.6

# Same assay, conditions: read-out: CB1 Ki
row,Structure (SMILES),Ki [nM]
1,CC(C)(C)[C@H](NC(=O)c1nn(Cc2ccc(C(F)(F)F)cc2)c2ccccc12)C(=O)NCCNS(=O)(=O)c1ccc(C#N)cc1 [Example 267],78
2,CC(C)(C)[C@H](NC(=O)c1nn(Cc2ccc(F)cc2)c2ccccc12)C(=O)N1CCCC(C(=O)NCCO)C1 (stereo partly drawn) [Example 277],31.7
3,CC(C)(C)[C@H](NC(=O)c1nn(Cc2ccc(F)cc2)c2ccccc12)C(=O)N1CCCC(C(=O)NC[C@H](O)CO)C1 (stereo partly drawn) [Example 278],68.8
4,CC(C)(C)[C@H](NC(=O)c1nn(Cc2ccc(C#N)cc2)c2c(F)cccc12)C(=O)N[C@H]1CCc2ccccc21 [Example 287],> 400
5,CC(C)(C)[C@H](NC(=O)c1nn(Cc2ccc(F)cc2)c2ccccc12)C(=O)N[C@H](CC(N)=O)C(N)=O [Example 290],92
6,CC(C)(C)[C@H](NC(=O)c1nn(Cc2ccc(F)cc2)c2ccccc12)C(=O)N1CCC[C@H]1C(=O)NCCO [Example 293],> 400
7,CC(C)(C)[C@H](NC(=O)c1nn(Cc2ccc(F)cc2)c2ccccc12)C(=O)N1CCC[C@H]1C(=O)NC[C@H](O)CO [Example 294],> 400
8,COc1cc(CNC(=O)[C@@H](NC(=O)c2nn(Cc3ccc(C#N)cc3)c3ccccc23)C(C)(C)C)on1 [Example 311],147
9,COc1cc(CNC(=O)[C@@H](NC(=O)c2nn(Cc3ccc(C#N)cc3)c3c(F)cccc23)C(C)(C)C)on1 [Example 312],178
10,COc1cc(CNC(=O)[C@@H](NC(=O)c2nn(Cc3ccc(C#N)cc3)c3cc(F)ccc23)C(C)(C)C)on1 [Example 313],273
11,CCNC(=O)OC1CCCN(C(=O)[C@@H](NC(=O)c2nn(Cc3ccc(F)cc3)c3ccccc23)C(C)(C)C)C1 (stereo partly drawn) [Example 317],31.1
12,CC(C)NC(=O)OC1CCCN(C(=O)[C@@H](NC(=O)c2nn(Cc3ccc(F)cc3)c3ccccc23)C(C)(C)C)C1 (stereo partly drawn) [Example 318],68.7
13,CCOC(=O)C1(F)CCN(C(=O)[C@@H](NC(=O)c2nn(Cc3ccc(F)cc3)c3ccccc23)C(C)(C)C)CC1 [Example 342],20.5
14,CC(C)(C)[C@H](NC(=O)c1nn(Cc2ccc(F)cc2)c2ccccc12)C(=O)N1CCC(F)(C(N)=O)CC1 [Example 343],216
15,CC(C)(C)[C@H](NC(=O)c1nn(Cc2ccc(F)cc2)c2ccccc12)C(=O)NCC1CN(C(N)=O)C1 [Example 347],24.4
16,Cc1cc(O)nc(CNC(=O)[C@@H](NC(=O)c2nn(Cc3ccc(C#N)cc3)c3c(F)cccc23)C(C)(C)C)n1 [Example 349],101
17,Cc1cc(O)nc(CNC(=O)[C@@H](NC(=O)c2nn(Cc3ccc(C#N)cc3)c3ccccc23)C(C)(C)C)n1 [Example 350],229
18,Cc1nnc(CNC(=O)[C@@H](NC(=O)c2nn(Cc3ccc(C#N)cc3F)c3c(F)c(F)ccc23)C(C)(C)C)o1 [Example 364],20.9

# Reference: US20110028447A1, “INDAZOLE DERIVATIVES” (Pfizer Inc., priority 2008, published 2011)
